{
  "source": "patent US20250154109A1",
  "about": "“SODIUM CHANNEL BLOCKING COMPOUNDS, DERIVATIVES THEREOF, AND METHODS OF THEIR USE” (LATIGO BIOTHERAPEUTICS, INC, priority 2022, published 2025)",
  "target": "human Nav1.8 (Homo sapiens, UniProt Q9Y5Y9)",
  "sequence (Q9Y5Y9 whole entry)": "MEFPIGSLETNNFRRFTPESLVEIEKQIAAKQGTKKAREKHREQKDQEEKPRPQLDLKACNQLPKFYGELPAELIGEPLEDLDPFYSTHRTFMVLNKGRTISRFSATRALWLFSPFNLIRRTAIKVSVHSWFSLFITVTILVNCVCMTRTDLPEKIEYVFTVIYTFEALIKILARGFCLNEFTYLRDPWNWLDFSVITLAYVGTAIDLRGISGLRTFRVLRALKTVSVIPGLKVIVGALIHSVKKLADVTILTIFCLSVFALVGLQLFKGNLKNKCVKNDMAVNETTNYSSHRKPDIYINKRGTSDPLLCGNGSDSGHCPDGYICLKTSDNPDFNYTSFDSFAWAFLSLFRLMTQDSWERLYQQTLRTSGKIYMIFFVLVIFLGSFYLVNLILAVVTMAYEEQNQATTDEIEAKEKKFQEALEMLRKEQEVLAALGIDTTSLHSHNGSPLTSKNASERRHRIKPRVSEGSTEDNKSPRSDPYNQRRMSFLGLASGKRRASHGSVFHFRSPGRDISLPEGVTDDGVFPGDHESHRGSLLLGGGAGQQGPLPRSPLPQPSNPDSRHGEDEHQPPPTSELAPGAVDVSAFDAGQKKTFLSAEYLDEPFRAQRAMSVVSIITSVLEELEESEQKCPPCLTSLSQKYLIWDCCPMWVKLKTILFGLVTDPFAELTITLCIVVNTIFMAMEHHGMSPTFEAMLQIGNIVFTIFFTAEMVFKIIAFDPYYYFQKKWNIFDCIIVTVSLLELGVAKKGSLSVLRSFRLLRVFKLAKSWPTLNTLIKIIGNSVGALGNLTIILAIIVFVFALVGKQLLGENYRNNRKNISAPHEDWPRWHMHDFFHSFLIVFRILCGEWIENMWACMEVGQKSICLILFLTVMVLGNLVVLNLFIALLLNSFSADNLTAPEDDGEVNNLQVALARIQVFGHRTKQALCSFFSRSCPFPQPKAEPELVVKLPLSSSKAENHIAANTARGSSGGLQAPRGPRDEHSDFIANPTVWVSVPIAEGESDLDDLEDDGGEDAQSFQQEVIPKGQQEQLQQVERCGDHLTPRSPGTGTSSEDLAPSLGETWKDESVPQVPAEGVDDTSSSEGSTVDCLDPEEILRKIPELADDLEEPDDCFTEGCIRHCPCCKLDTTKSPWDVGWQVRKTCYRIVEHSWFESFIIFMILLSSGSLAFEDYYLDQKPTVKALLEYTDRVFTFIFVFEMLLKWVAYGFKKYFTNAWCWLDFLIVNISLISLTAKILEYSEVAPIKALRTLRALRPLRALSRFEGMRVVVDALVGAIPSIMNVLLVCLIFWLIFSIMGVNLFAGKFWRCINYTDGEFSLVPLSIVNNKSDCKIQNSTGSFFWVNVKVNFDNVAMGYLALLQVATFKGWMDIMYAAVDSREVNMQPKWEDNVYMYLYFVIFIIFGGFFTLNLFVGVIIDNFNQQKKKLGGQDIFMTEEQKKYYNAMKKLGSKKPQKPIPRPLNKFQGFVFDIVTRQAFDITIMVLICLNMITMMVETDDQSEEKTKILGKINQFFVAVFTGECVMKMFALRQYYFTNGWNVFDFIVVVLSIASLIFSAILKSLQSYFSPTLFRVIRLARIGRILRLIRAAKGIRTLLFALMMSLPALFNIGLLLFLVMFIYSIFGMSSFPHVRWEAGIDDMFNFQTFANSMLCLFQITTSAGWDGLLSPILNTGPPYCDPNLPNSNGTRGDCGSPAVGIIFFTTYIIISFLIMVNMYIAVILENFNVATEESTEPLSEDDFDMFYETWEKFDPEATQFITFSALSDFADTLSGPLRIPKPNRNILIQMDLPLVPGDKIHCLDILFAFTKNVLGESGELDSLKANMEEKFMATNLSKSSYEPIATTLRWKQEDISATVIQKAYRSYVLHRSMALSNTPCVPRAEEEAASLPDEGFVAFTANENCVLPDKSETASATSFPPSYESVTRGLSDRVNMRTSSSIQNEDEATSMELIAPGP",
  "experiment": "SyncroPatch384PE assay (automated patch clamp)",
  "assay_type": "cell-based",
  "details": "human Nav1.8/b3 CHO cells",
  "key": {"[1]": {"details": "inactivated state block (P2 measurement), read-out: P2 IC50"}, "[2]": {"details": "resting state block (P1 measurement), read-out: P1 IC50"}},
  "note": "Where two headings read alike, the source gives them in different places.",
  "data": [
    {"smiles": "Cc1nc(N2CCCC(F)(F)CC2)c(C(=O)Nc2ccnc(S(=N)(N)=O)c2)cc1C(F)(F)F", "note": "(stereo not shown) [Example 114, 2-(4,4-difluoroazepan-1-yl)-6-methyl-N-(2-sulfamidimidoylpyridin-4-yl)-5-(trifluoromethyl)nicotinamide]", "values": [
      {"measurement": "IC50", "setting": "[1]", "value": "≤ 5", "unit": "nM"},
      {"measurement": "IC50", "setting": "[2]", "value": "≤ 5", "unit": "nM"}
    ]},
    {"smiles": "Cc1c(C#N)cnc(N2CCCC(F)(F)CC2)c1C(=O)Nc1cccc([S@](C)(=N)=O)c1", "note": "[Example 125, (R)-5-cyano-2-(4,4-difluoroazepan-1-yl)-4-methyl-N-(3-(S-methylsulfonimidoyl)phenyl)nicotinamide]", "values": [
      {"measurement": "IC50", "setting": "[1]", "value": "5 to 50", "unit": "nM"},
      {"measurement": "IC50", "setting": "[2]", "value": "5 to 50", "unit": "nM"}
    ]},
    {"smiles": "Cc1c(Br)cnc(N2CCCC(F)(F)CC2)c1C(=O)Nc1cccc([S@@](C)(=O)=NCCN)c1", "note": "[Example 209, (R)-N-(3-(N-(2-aminoethyl)-S-methylsulfonimidoyl)phenyl)-5-bromo-2-(4,4-difluoroazepan-1-yl)-4-methylnicotinamide 2,2,2-trifluoroacetate]", "values": [
      {"measurement": "IC50", "setting": "[1]", "value": "≤ 5", "unit": "nM"},
      {"measurement": "IC50", "setting": "[2]", "value": "≤ 5", "unit": "nM"}
    ]},
    {"smiles": "Cc1cc(C(F)(F)F)nc(N2CCCC(F)(F)CC2)c1C(=O)Nc1cccc([S@@](C)(=N)=O)c1", "note": "[Example 34, (S)-2-(4,4-Difluoroazepan-1-yl)-4-methyl-N-(3-(S-methylsulfonimidoyl)phenyl)-6-(trifluoromethyl)nicotinamide]", "values": [
      {"measurement": "IC50", "setting": "[1]", "value": "≤ 5", "unit": "nM"},
      {"measurement": "IC50", "setting": "[2]", "value": "≤ 5", "unit": "nM"}
    ]},
    {"smiles": "Cc1c(C#N)c(C(F)(F)F)nc(N2CCCC(F)(F)CC2)c1C(=O)Nc1cccc([S@](C)(=N)=O)c1", "note": "[Example 56, (R)-5-cyano-2-(4,4-difluoroazepan-1-yl)-4-methyl-N-(3-(S-methylsulfonimidoyl)phenyl)-6-(trifluoromethyl)nicotinamide]", "values": [
      {"measurement": "IC50", "setting": "[1]", "value": "≤ 5", "unit": "nM"},
      {"measurement": "IC50", "setting": "[2]", "value": "≤ 5", "unit": "nM"}
    ]},
    {"smiles": "Cc1c(C(F)(F)F)nnc(N2CCCC(F)(F)CC2)c1C(=O)Nc1cccc([S@](C)(=N)=O)c1", "note": "[Example 28, (R)-3-(4,4-Difluoroazepan-1-yl)-5-methyl-N-(3-(S-methylsulfonimidoyl)phenyl)-6-(trifluoromethyl)pyridazine-4-carboxamide]", "values": [
      {"measurement": "IC50", "setting": "[1]", "value": "5 to 50", "unit": "nM"},
      {"measurement": "IC50", "setting": "[2]", "value": "5 to 50", "unit": "nM"}
    ]},
    {"smiles": "Cc1c(-c2cnn(C)c2)cnc(N2CCCC(F)(F)CC2)c1C(=O)Nc1cccc([S@](C)(=N)=O)c1", "note": "[Example 45, (R)-2-(4,4-difluoroazepan-1-yl)-4-methyl-5-(1-methyl-1H-pyrazol-4-yl)-N-(3-(S-methylsulfonimidoyl)phenyl)nicotinamide]", "values": [
      {"measurement": "IC50", "setting": "[1]", "value": "50 to 100", "unit": "nM"},
      {"measurement": "IC50", "setting": "[2]", "value": "50 to 100", "unit": "nM"}
    ]},
    {"smiles": "Cc1c(C(F)(F)F)nnc(N2CCCC(F)(F)CC2)c1C(=O)Nc1cccc([S@@](C)(=N)=O)c1", "note": "[Example 29, (S)-3-(4,4-Difluoroazepan-1-yl)-5-methyl-N-(3-(S-methylsulfonimidoyl)phenyl)-6-(trifluoromethyl)pyridazine-4-carboxamide]", "values": [
      {"measurement": "IC50", "setting": "[1]", "value": "5 to 50", "unit": "nM"},
      {"measurement": "IC50", "setting": "[2]", "value": "5 to 50", "unit": "nM"}
    ]},
    {"smiles": "Cc1cc(C(N)=O)nc(N2CCCC(F)(F)CC2)c1C(=O)Nc1cccc([S@](C)(=N)=O)c1", "note": "[Example 153, (R)-6-(4,4-difluoroazepan-1-yl)-4-methyl-N5-(3-(S-methylsulfonimidoyl)phenyl)pyridine-2,5-dicarboxamide]", "values": [
      {"measurement": "IC50", "setting": "[1]", "value": "> 200", "unit": "nM"},
      {"measurement": "IC50", "setting": "[2]", "value": "> 200", "unit": "nM"}
    ]},
    {"smiles": "Cc1c(-c2ccc3c(c2)OCCO3)cnc(N2CCCC(F)(F)CC2)c1C(=O)Nc1cccc([S@](C)(=N)=O)c1", "note": "[Example 47, (R)-2-(4,4-difluoroazepan-1-yl)-5-(2,3-dihydrobenzo[b][1,4]dioxin-6-yl)-4-methyl-N-(3-(S-methylsulfonimidoyl)phenyl)nicotinamide]", "values": [
      {"measurement": "IC50", "setting": "[1]", "value": "5 to 50", "unit": "nM"},
      {"measurement": "IC50", "setting": "[2]", "value": "5 to 50", "unit": "nM"}
    ]},
    {"smiles": "Cc1c(C(=O)Nc2cccc([S@](C)(=N)=O)c2)c(N2CCCC(F)(F)CC2)nc(C(F)(F)F)c1-c1cnn(C)c1", "note": "[Example 133, (R)-2-(4,4-difluoroazepan-1-yl)-4-methyl-5-(1-methyl-1H-pyrazol-4-yl)-N-(3-(S-methylsulfonimidoyl)phenyl)-6-(trifluoromethyl)nicotinamide]", "values": [
      {"measurement": "IC50", "setting": "[1]", "value": "≤ 5", "unit": "nM"},
      {"measurement": "IC50", "setting": "[2]", "value": "≤ 5", "unit": "nM"}
    ]},
    {"smiles": "Cc1c(Cl)c(-c2cnn(C)c2)nc(N2CCCC(F)(F)CC2)c1C(=O)Nc1ccnc([S@](C)(=N)=O)c1", "note": "[Example 212, (R)-5-chloro-2-(4,4-difluoroazepan-1-yl)-4-methyl-6-(1-methyl-1H-pyrazol-4-yl)-N-(2-(S-methylsulfonimidoyl)pyridin-4-yl)nicotinamide]", "values": [
      {"measurement": "IC50", "setting": "[1]", "value": "5 to 50", "unit": "nM"},
      {"measurement": "IC50", "setting": "[2]", "value": "5 to 50", "unit": "nM"}
    ]},
    {"smiles": "Cc1c(C(F)(F)F)nnc(N2CCCC(F)(F)CC2)c1C(=O)Nc1cccc([S@@](C)(=O)=NC(=O)[C@@H](C)O)c1", "note": "[Example 179, 3-(4,4-difluoroazepan-1-yl)-N-(3-((R)-N-((R)-2-hydroxypropanoyl)-S-methylsulfonimidoyl)phenyl)-5-methyl-6-(trifluoromethyl)pyridazine-4-carboxamide]", "values": [
      {"measurement": "IC50", "setting": "[1]", "value": "≤ 5", "unit": "nM"},
      {"measurement": "IC50", "setting": "[2]", "value": "≤ 5", "unit": "nM"}
    ]},
    {"smiles": "Cc1c(-c2c(F)cccc2F)cnc(N2CCCC(F)(F)CC2)c1C(=O)Nc1cccc(S(C)(=N)=O)c1", "note": "(stereo not shown) [Example 104, 2-(4,4-difluoroazepan-1-yl)-5-(2,6-difluorophenyl)-4-methyl-N-(3-(S-methylsulfonimidoyl)phenyl)nicotinamide]", "values": [
      {"measurement": "IC50", "setting": "[1]", "value": "5 to 50", "unit": "nM"},
      {"measurement": "IC50", "setting": "[2]", "value": "5 to 50", "unit": "nM"}
    ]},
    {"smiles": "Cc1c(-c2ccc(Cl)cc2)cnc(N2CCCC(F)(F)CC2)c1C(=O)Nc1cccc([S@](C)(=N)=O)c1", "note": "[Example 67, (R)-5-(4-chlorophenyl)-2-(4,4-difluoroazepan-1-yl)-4-methyl-N-(3-(S-methylsulfonimidoyl)phenyl)nicotinamide]", "values": [
      {"measurement": "IC50", "setting": "[1]", "value": "≤ 5", "unit": "nM"},
      {"measurement": "IC50", "setting": "[2]", "value": "≤ 5", "unit": "nM"}
    ]},
    {"smiles": "Cc1c(-c2cnn(C(F)F)c2)cnc(N2CCCC(F)(F)CC2)c1C(=O)Nc1cccc([S@](C)(=N)=O)c1", "note": "[Example 159, (R)-2-(4,4-difluoroazepan-1-yl)-5-(1-(difluoromethyl)-1H-pyrazol-4-yl)-4-methyl-N-(3-(S-methylsulfonimidoyl)phenyl)nicotinamide]", "values": [
      {"measurement": "IC50", "setting": "[1]", "value": "5 to 50", "unit": "nM"},
      {"measurement": "IC50", "setting": "[2]", "value": "5 to 50", "unit": "nM"}
    ]},
    {"smiles": "Cc1c(C(=O)Nc2cccc([S@@](C)(=O)=NC(=O)CN)c2)c(N2CCCC(F)(F)CC2)nc(C(F)(F)F)c1-c1cnn(C)c1", "note": "[Example 184, (R)-2-(4,4-difluoroazepan-1-yl)-N-(3-(N-glycyl-S-methylsulfonimidoyl)phenyl)-4-methyl-5-(1-methyl-1H-pyrazol-4-yl)-6-(trifluoromethyl)nicotinamide]", "values": [
      {"measurement": "IC50", "setting": "[1]", "value": "≤ 5", "unit": "nM"},
      {"measurement": "IC50", "setting": "[2]", "value": "≤ 5", "unit": "nM"}
    ]},
    {"smiles": "Cc1nc(N2CCC3(CC2)CC3)c(C(=O)Nc2cccc(S(C)(=N)=O)c2)cc1C(F)(F)F", "note": "(stereo not shown) [Example 25, 6-Methyl-N-(3-(S-methylsulfonimidoyl)phenyl)-2-(6-azaspiro[2.5]octan-6-yl)-5-(trifluoromethyl)nicotinamide]", "values": [
      {"measurement": "IC50", "setting": "[1]", "value": "≤ 5", "unit": "nM"},
      {"measurement": "IC50", "setting": "[2]", "value": "≤ 5", "unit": "nM"}
    ]},
    {"smiles": "Cc1c(Br)c(C(F)(F)F)nc(N2CCCC(F)(F)CC2)c1C(=O)Nc1cccc([S@](C)(=N)=O)c1", "note": "[Example 130, (R)-5-bromo-2-(4,4-difluoroazepan-1-yl)-4-methyl-N-(3-(S-methylsulfonimidoyl)phenyl)-6-(trifluoromethyl)nicotinamide]", "values": [
      {"measurement": "IC50", "setting": "[1]", "value": "≤ 5", "unit": "nM"},
      {"measurement": "IC50", "setting": "[2]", "value": "≤ 5", "unit": "nM"}
    ]},
    {"smiles": "Cc1c(-c2cnn(C)c2)cnc(N2CCCC(F)(F)CC2)c1C(=O)Nc1cccc(S(=N)(N)=O)c1", "note": "(stereo not shown) [Example 165, 2-(4,4-difluoroazepan-1-yl)-4-methyl-5-(1-methyl-1H-pyrazol-4-yl)-N-(3-sulfamidimidoylphenyl)nicotinamide]", "values": [
      {"measurement": "IC50", "setting": "[1]", "value": "5 to 50", "unit": "nM"},
      {"measurement": "IC50", "setting": "[2]", "value": "5 to 50", "unit": "nM"}
    ]}
  ]
}
